Laboratory results taken from patent US10342806B2, “Hormone treatment for age-related hearing loss-presbycusis” (priority 2014, dated 2019).
Peptide text beside a SMILES is read from it. * marks the point of attachment. Cbz = O=C(OCc1ccccc1)*

How the values were obtained:
Format in all cases: cell-based, human
[1] = tested on: NKCC1; assay: NKCC1 protein expression in HT-29 cells, Western blot
From the text: Cell culture and buffers. […] Arch Oral Biol 52: 411-416, 2007). These include, for example, studies of COMM domain-containing protein 1, which is involved in NKCC1 ubiquitination and transcriptional regulation of epithelial Na^+ channels (ENaC) located in the apical membrane of polarized epithelial cells, in particular, cells in the colon, kidney, and lung, by ALD (Cohen, et al., Induced differentiation in HT29, a human colon adenocarcinoma cell line. J Cell Sci 112: […], 1999, Epple, et al., Early aldosterone effect in distal colon by transcriptional regulation of ENaC subunits. Am J Physiol Gastrointest Liver Physiol 278: G718-G724, 2000, Smith, et al., COMMD1 interacts with the COOH terminus of NKCC1 in Calu-3 airway epithelial cells to modulate NKCC1 ubiquitination. Am J Physiol Cell Physiol 305: C133-C146, 2013). HT-29 cells were grown in DMEM media (Invitrogen, Carlsbad Calif.) with 10% FBS and antibiotics. Cells were grown in a humidified 95%/5% CO2 incubator at 37° C. Experiments were performed at 70-80% confluence.
(§1) Western blot. Cell lysates were prepared in RIPA buffer (Pierce 89901; Thermo Scientific, Waltham, Mass.) with protease inhibitor cocktail (78430; Thermo Scientific). Cell samples were homogenized in buffer, followed by centrifugation at 2,000 rpm for 10 min at 4° C. Supernatants were subjected to Western blot analysis by loading 200 μg of protein per lane, after the protein concentrations were determined by Bradford protein assay. Proteins were fractionated by SDS-PAGE gel electrophoresis and transferred to a PVDF blotting membrane (Whatman, Piscataway, N.J.). The blot was incubated with primary antibodies against β-actin and Na—K-2C1 cotransport protein (Cell Signaling, Danvers Mass.); primary antibodies for p-SGK1, SGK1, pNedd4-2, and Nedd4-2 were utilized (concentration 1:1,000). The secondary antibody was horseradish peroxidaseconjugated goat anti-rabbit IgG (1:2,000; Cell Signaling).
Statistical analysis. Images from films were imported into Adobe Photoshop (v 5.0), and further processed using Adobe Photoshop CS and ImageJ (National Institutes of Health) for the densitometry analysis. Data are reported as means±SD. Statistical analyses were performed with PRISM 4.0 (GraphPad Software, San Diego Calif.). Differences were analyzed with a one- or a two-way repeated measures ANOVA as appropriate or a two-way ANOVA followed by Bonferroni post hoc analyses that were corrected for multiple comparisons. Values of P <0.05 were considered significant.

[2] = tested on: LC3-I, -II, and LAMP-2; assay: Lysosome pathway markers in HT-29 cells, Western blot; conditions: ALD 1 μM, MG-132 20 μM, CQ 50 μM, 9 h
Protocol: FIG. 23(A) is a blot and showing ubiquitination, but not the lysosome pathway, is involved in the regulation of NKCC1 by ALD. To exclude the possibility that depletion of free ubiquitin by the prolonged MG-132 treatment triggered nonspecific inhibition of lysosome degradation of NKCC1 and investigate whether ALD is involved in a lysosome pathway, a parallel experiment with chloroquine (CQ) was performed. Here, the positive marks (+) indicate application of ALD (1 μM), MG132 (20 μM), CQ (50 μM), ALD+CQ, and MG132+CQ for 9 h. An autophagosome marker, autophagy-related gene 8 named as light chain 3 (LC3), and the lysosome-associated membrane protein 2 (LAMP-2) were used was indicators of lysosome pathway activation (phagocytic activity) under treatment with CQ.
as §1
Ubiquitination, but not the lysosome pathway, is involved in NKCC1 induction by ALD. A parallel experiment was performed with chloroquine (CQ), a lysosome inhibitor, to exclude the possibility that prolonged MG-132 treatment depleted free ubiquitin by nonspecific inhibition of lysosome degradation of NKCC1 and to confirm whether or not ALD is involved in a lysosome pathway. […]

[3] = tested on: NKCC1; assay: Tl-uptake in single HT-29 cells (FluxOR) for NKCC1 activity; conditions: 24 single HT-29 cells per condition
From the text: Tl-uptake in single cells for the detection of NKCC1 activity. To measure NKCC1 activity, we used a fluorescence assay to assess cotransporter activity in single isolated HT-29 cells (Delpire & Austin, Kinase regulation of Na^+—K^+-2Cl^− cotransport in primary afferent neurons. J Physiol 588: 3365-3373, 2010, Geng, et al., The Ste20 kinases SPAK and OSR1 regulate NKCC1 function in sensory neurons. J Biol Chem 284: 14020-14028, 2009, Weaver, et al., A thallium-sensitive, fluorescence-based assay for detecting and characterizing potassium channel modulators in mammalian cells. J Biomol Screen 9: 671-677, 2004). HT-29 cells were incubated at 37° C./5% CO2 for 24 h before use. […] For the detection of fluorescence, the preincubation solution was removed, and the cells were treated with a 340.5 mosM hypertonic stimulus solution containing the following (in mM): (2.8 TISO4, 140 NaCl, 2 KCl, 2 CaCl2, 0.8 MgSO4, 5 glucose, 20 HEPES, 27 sucrose, 1 ouabain, and 2.7 probenecid) in the presence or absence of 20 μM bumetanide. […] FluxOR fluorescence (excitation/emission: 488/525 nm) was recorded after 90 s upon addition of 2.8 mM […] to the external medium. […]
Influence of ALD on NKCC1 transporter activity. […] To test this hypothesis, a more efficient and sensitive method, fluorescence Ion flux assays was adopted to measure NKCC1 transporter activity. […]

[4] = tested on: Na,K-ATPase; assay: Na,K-ATPase mRNA expression in HT-29 cells; conditions: 5 mM, 24 hr, HT-29, compared to vehicle treatment; preliminary data
Protocol: FIG. 37 is a blot showing the up-regulation of Na, K-ATPase with NH4Cl. L is the DNA ladder, C is the control (vehicle treatment), NH4CL is treatment with 5 mM NH4Cl for 24 hours.
Ammonium chloride (NH4Cl) as part of a proposed treatment of presbycusis is based on the fact that NH4Cl has been used with FDA approval as a diuretic; NH4Cl increases NKCC1 protein expression and activity in several studies in other physiological systems (Jayakumar et al. 2008; Ikebe et al. 2001); c) NH4Cl can also increase Na, K-ATPase activity (Masui et al. 2002; Garcon et al. 2007). For large doses, NH4Cl can induce metabolic acidosis, but in lower doses taken orally, there are no significant side effects in the short term.

[5] = tested on: SGK1 and Nedd4-2; assay: SGK1 and Nedd4-2 phosphorylation in HT-29 cells, Western blot; conditions: 9 h
Protocol: FIG. 25 is a blot showing ALD modulation of NKCC1 via the ALD-SGK1-Nedd4-2 pathway. HT-29 cells were treated with ALD (1 μM) or ALD (1 μM)+GSK650394 (50 μM) for 9 h. Cell lysates were analyzed by Western blot as indicated. Blots are representative of 3 independent experiments. Left: controls. Middle: ALD increases the phosphorylations of SGK1 and Nedd4-2, concomitantly there is an increased induction of NKCC1 protein expression (1st row).
as §1

[6] = tested on: NKCC1 ubiquitination; assay: Immunoprecipitation (autoubiquitination assay) of NKCC1 in HT-29 cells; conditions: MG132 20 μM 2 h, then ALD 1 μM and/or GSK 650394 50 μM for 24 h
Protocol: Immunoprecipitation (autoubiquitination assay) and western blot analysis. An autoubiquitination assay was followed (Garg, et al., Effect of the Na—K-2Cl cotransporter NKCC1 on systemic blood pressure and smooth muscle tone. Am J Physiol Heart Circ Physiol 292: H2100-H2105, 2007). Cell extracts were prepared in a modified radioimmunoprecipitation assay 1 (RIPA) buffer, containing the following (in mM): 50 Tris·HCl at pH 7.4, 150 NaCl, 1 EDTA, and 1 dithiothreitol with 1% Nonidet P-40, 0.1% SDS; in a 1:200-diluted protease inhibitor cocktail (Sigma), containing the following (in mM): 1 PMSF, 10 NEM, and 0.1 iodoacetamide Immunoprecipitations were accomplished using a rabbit polyclonal anti-NKCC1 antibody (Cell Signaling). Antibody was bound to lysate with endogenous NKCC1, and then beads were added. Bound proteins were eluted in 1× SDS sample buffer, fractionated on an SDS-polyacrylamide gel, transferred onto a […] membrane (GE Healthcare, Piscataway, N.J.), and immunoblotted with anti-ubiquitin antibody visualized using enhanced chemiluminescence detection reagents (Pears, Shelton Conn.) according to the manufacturer's instructions.
Immunoblotting with anti-ubiquitin antibody was performed as described above.
ALD decreases the endogenous ubiquitination of NKCC1 and inhibition of SGK1 activation blocks this downregulation. […]

**Q.** Which results are given for `CC(C)C[C@@H](C=O)NC(=O)[C@H](CC(C)C)NC(=O)[C@H](CC(C)C)NC(=O)OCc1ccccc1` [MG132] (Cbz-Leu-Leu-Leu-aldehyde)?
**A.** induction of NKCC1 protein expression ([1]; ALD 1 μM, MG-132 20 μM, CQ 50 μM, 9 h): induce NKCC1 protein expression similarly; NKCC1 protein expression ([1]; MG132, ALD 1 μM, 3, 6, or 9 h): effect of ALD on NKCC1 expression was mimicked by MG132; lysosome pathway markers LC3II and LAMP-2 expression levels [2]: without increasing lysosome pathway markers; bumetanide-sensitive Tl+ uptake fluorescence [3]: identical enhancements similar to the ALD treatment alone

**Q.** `Cl.N` [NH4Cl, Ammonium chloride] was tested. Which “mRNA expression of Na,K-ATPase” value [4] did it give?
**A.** The value was “enhances the mRNA expression of Na,K-ATPase”.

**Q.** With `O=C(O)c1ccc(-c2c[nH]c3ncc(-c4ccccc4)cc23)cc1C1CCCC1` [GSK 650394] as the compound, how does the “NKCC1 protein expression with ALD in the presence of SGK1 inhibitor” value ([1]; ALD 1 μM + GSK 650394 50 μM, 9 h) read?
**A.** Its value is “did not increase protein expression of NKCC1”.

**Q.** What about the “total protein expressions of SGK1 and Nedd4-2” value ([5]; ALD 1 μM + GSK 650394 50 μM) of the same compound?
**A.** Its value is “showed no differences”.

**Q.** And the “phosphorylation of SGK1 and Nedd4-2” value ([5]; ALD 1 μM, GSK 650394 50 μM)?
**A.** Its value is “blocked phosphorylation of SGK1 and Nedd4-2”.

**Q.** And the “endogenous ubiquitinated NKCC1” value [6]?
**A.** The value was “reduces the ability of ALD to suppress NKCC1 ubiquitination”.

**Q.** How did the “lysosome pathway markers LC3II and LAMP-2 expression levels” value [2] turn out when `CCN(CC)CCCC(C)Nc1ccnc2cc(Cl)ccc12` (centres unmarked) [CQ, chloroquine] was run?
**A.** Its value is “significant upregulation of LC3II and LAMP-2 expression levels”.

**Q.** Which “effect on ALD upregulation of NKCC1 protein expression” value ([1]; simultaneous ALD (1 μM) and eplerenone (20 μM)) does the source give for `COC(=O)[C@@H]1CC2=CC(=O)CC[C@]2(C)[C@@]23O[C@@H]2C[C@@]2(C)[C@@H](CC[C@@]24CCC(=O)O4)[C@H]13` [eplerenone] here?
**A.** Its value is “prevented the ALD upregulation of NKCC1 protein expression”.
